# Measured values published in patent US20090105172A1, “Stabilized Aptamers to PSMA and Their Use as Prostate Cancer Therapeutics” (priority 2005, published 2009).
# Biological target: T1, ECD PSMA (Homo sapiens, UniProt Q04609)
# T1 construct: vector-derived N-terminal linker […]; made in house; host or cells: 293 Freestyle cells, pSecTag2B vector
# Assay: Dot blot binding assay (nitrocellulose filter) with purified ECD PSMA
# Details: A9 minimer, without tRNA
# Excerpt: Protein Purification of ECD of PSMA: An I.M.A.G.E. clone (5202715) encoding full length recombinant human PSMA was purchased from Open Biosystems (Clone EHS1001-18533, Huntsville, Ala.). PCR was used to amplify the extracellular portion of the full length clone. An oligo with an N-terminal histidine tag was designed to engineer a construct which lacks the transmembrane domain residues 1-44. The his-tagged extracellular domain (ECD) was subcloned into the pSecTag2B expression vector (Invitrogen, Carlsbad, Calif.). The ECD of PSMA was purified in house from transfected 293 Freestyle cells (ATCC, Manassas, Va.). The amino acid sequence of the expressed protein comprising an N-terminal linker sequence of […] followed by eight Histidines is listed below: […] VSDr[…]a[…]r[…]rYV […] (SEQ ID NO 5)
# Dot Blot Binding Analysis. Dot blot binding assays were performed throughout the selections to monitor the protein binding affinity of the pools. For initial pool screening, trace ^32P-labeled pool RNA was combined with PSMA and incubated at room temperature for 30 min in 1×SHMCK buffer pH 7.4 (20 mM Hepes pH 7.4, 120 mM NaCl, 5 mM KCl, 1 mM MgCl2, 1 mM CaCl2) plus 0.1 mg/mL tRNA in a final volume of 30 μl. The mixture was applied to a dot blot apparatus (Schleicher and Schuell Minifold-1 Dot Blot, Acrylic, Keene, N.H.), assembled (from top to bottom) with nitrocellulose, nylon, and gel blot membranes. RNA that is bound to protein is captured on the nitrocellulose filter; whereas the non-protein bound RNA is captured on the nylon filter. […] The Round 9 pool was cloned and screened in a single point dot blot assay using 100 nM PSMA (0 nM PSMA was used as a negative control). Clone transcripts were 5′ end labeled with ^32-P ATP. Likely binders were than assayed for KD determination by the blot assay conditions described directly above, but without tRNA, using an 8 point PSMA titration with a constant RNA concentration. […] Both of the clones screened were unique sequences in the Round 9 selection pool.
# In order to identify the core structural elements required for ARC955 binding to PSMA, the 3′-boundaries of the clone was determined through alkaline hydrolysis. The parent RNA transcript was labeled at the 5′-end with γ-^32P ATP and T4 polynucleotide kinase. Radiolabeled ligands were subjected to partial alkaline hydrolysis and then selectively bound in solution to ECD PSMA (purified in house) at 100 nM before being passed through nitrocellulose filters (Centrex MF 1.5 mL, 0.45 μm, Schleicher & Schuell, Keene N.H.). Retained oligonucleotides were resolved on 8% denaturing polyacrylamide gels. The smallest oligonucleotide bound to PSMA defined the 3′-boundary. On the basis of the boundary experiments as well as visual inspection of predicted folds, truncated constructs were synthesized. Clones were then assayed by dot blot as previously described to determine their KD. […] The binding curve for ARC1091 in the dot blot assay is depicted in FIG. 5A, and the predicted secondary structure of ARC1091 is depicted in FIG. 5B. The KD and maximum % bound for the 3 minimized constructs with the overall highest PSMA affinity, as determined by a dot blot binding assay, are listed in Table 4. For the minimized rGmH aptamers described in Table 5 below, the guanosine triphosphates are 2′-OH and the adenosines triphosphates, cytidine triphosphates and uridine triphosphates are 2′-OMe. Unless noted otherwise, the individual sequences are represented in the 5′ to 3′ orientation. In some embodiments, the invention comprises aptamers with a nucleic acid sequence as described in Table 4 below. In some embodiments, the nucleic acid sequence of an aptamer described in Table 4 below additionally comprises a 3′ cap (e.g., an inverted dT cap), and/or 5′ amine (NH2) modification to facilitate chemical coupling, and/or conjugation to a high molecular weight, non-immunogenic compound (e.g., PEG). […]
# T1 sequence (Q04609 with tags, fused parts or gaps): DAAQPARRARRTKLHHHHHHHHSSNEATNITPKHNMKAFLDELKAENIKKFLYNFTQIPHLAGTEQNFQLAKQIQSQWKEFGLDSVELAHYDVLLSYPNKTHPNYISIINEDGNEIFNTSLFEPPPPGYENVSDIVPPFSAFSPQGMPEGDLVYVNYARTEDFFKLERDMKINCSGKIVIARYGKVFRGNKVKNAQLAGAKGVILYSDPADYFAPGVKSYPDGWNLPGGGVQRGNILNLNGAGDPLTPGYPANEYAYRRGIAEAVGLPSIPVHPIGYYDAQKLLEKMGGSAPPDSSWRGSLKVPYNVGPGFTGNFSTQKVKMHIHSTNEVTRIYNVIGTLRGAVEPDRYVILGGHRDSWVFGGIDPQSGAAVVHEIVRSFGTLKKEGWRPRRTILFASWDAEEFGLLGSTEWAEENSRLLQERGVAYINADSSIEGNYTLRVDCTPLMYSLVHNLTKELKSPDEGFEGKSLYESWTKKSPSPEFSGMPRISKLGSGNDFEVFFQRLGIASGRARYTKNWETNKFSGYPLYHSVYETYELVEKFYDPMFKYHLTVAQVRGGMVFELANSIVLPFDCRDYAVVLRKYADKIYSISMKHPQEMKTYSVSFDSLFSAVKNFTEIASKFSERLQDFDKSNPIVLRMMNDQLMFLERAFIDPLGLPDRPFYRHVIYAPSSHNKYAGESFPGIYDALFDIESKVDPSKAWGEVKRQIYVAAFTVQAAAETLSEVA
substance,measurement,value
"GGAGGAfCfCGAAAAAGAfCfCfUGAfCfUfUfCfUAfUAfCfUAAGfUfCfUAfCGfUfUfCfCfUfCfCA (GGAGGACCGAAAAAGACCUGACUUCUAUACUAAGUCUACGUUCCUCCA; 2'-fluoro at 7, 8, 17, 18, 19, 22, 23, 24, 25, 26, 28, 30, 31, 35, 36, 37, 39, 41, 42, 43, 44, 45, 46, 47, other sugars and backbone not given here) [ARC591, 48-nt minimer of A9]",Kd,3.4 nM
